Results from PMC11897524 (Frontiers in Pharmacology, 2025).

Assays:
Test in all cases: SelectScreen Z′-LYTE kinase assay
Assay type in all cases: biochemical
CSK = CSK (Homo sapiens, UniProt P41240)
Method: (§1) The kinase selectivity profile of BST-4 was performed by the SelectScreen kinase profiling service (Thermo Fisher Scientific). Kinase selectivity assay was performed using Z′-LYTE ™ screening protocol kit. Briefly, the test compounds were screened in 1% DMSO (final). For 10-point titrations, perform a 3-fold dilution starting at a starting concentration of 50 µM. Then 2.5 µL 4× test compound, 2.4 µL kinase buffer, 5 µL 2× kinase mixture and 2.5 µL 4× ATP solution was added in black 384-well plate. After shaking for 30 s, the plates were incubated for 60 min at room temperature. Add developing reagent solution and shake the plate for 30 s, then incubate for 1 h at room temperature. The Fluorescence intensity per well was read using a fluorescence plate reader. SelectScreen® Kinase Profiling Service used XLfit from IDBS. The dose response curve was curve fit to model number 205 (sigmoidal dose-response model) and inhibition rates were calculated. 50% inhibition was used as a activity threshold. IC50 values were calculated based on curve fitting.

INSR = INSR (Homo sapiens, UniProt P06213)
Method: as §1

PDGFRA = PDGFRA (Homo sapiens, UniProt P16234)
Method: as §1

LYN = LYN (Homo sapiens, UniProt P07948)
Sequence of LYN (P07948 whole entry): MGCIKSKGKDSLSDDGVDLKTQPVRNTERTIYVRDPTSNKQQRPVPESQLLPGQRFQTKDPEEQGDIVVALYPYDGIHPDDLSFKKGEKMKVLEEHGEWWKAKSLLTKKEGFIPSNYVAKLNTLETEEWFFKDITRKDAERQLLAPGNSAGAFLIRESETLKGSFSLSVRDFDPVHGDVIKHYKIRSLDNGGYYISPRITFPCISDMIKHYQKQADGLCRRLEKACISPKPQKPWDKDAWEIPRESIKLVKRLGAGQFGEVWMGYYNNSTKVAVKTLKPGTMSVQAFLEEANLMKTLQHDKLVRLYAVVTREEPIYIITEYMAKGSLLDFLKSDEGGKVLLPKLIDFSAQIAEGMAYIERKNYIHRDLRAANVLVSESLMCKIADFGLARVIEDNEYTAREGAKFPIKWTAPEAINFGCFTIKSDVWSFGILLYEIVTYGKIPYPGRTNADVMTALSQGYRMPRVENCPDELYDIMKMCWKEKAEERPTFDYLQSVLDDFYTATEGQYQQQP
Method: as §1

IGF1R = IGF1R (Homo sapiens, UniProt P08069)
Method: as §1

ROS1 = ROS1 (Homo sapiens, UniProt P08922)
Method: as §1

DDR1 = DDR1 (Homo sapiens, UniProt Q08345)
Method: as §1

MET = MET (Homo sapiens, UniProt P08581)
Method: as §1

FER = FER (Homo sapiens, UniProt P16591)
Method: as §1

RET = RET (Homo sapiens, UniProt P07949)
Method: as §1

EPHB4 = EPHB4 (Homo sapiens, UniProt P54760)
Method: as §1

FLT1 = FLT1 (Homo sapiens, UniProt P17948)
Method: as §1

TYRO3 = TYRO3 (Homo sapiens, UniProt Q06418)
Method: as §1

EPHB3 = EPHB3 (Homo sapiens, UniProt P54753)
Method: as §1

FGFR1 = FGFR1 (Homo sapiens, UniProt P11362)
Method: as §1

ZAP70 = ZAP70 (Homo sapiens, UniProt P43403)
Method: as §1

JAK3 = JAK3 (Homo sapiens, UniProt P52333)
Sequence of JAK3 (P52333 whole entry): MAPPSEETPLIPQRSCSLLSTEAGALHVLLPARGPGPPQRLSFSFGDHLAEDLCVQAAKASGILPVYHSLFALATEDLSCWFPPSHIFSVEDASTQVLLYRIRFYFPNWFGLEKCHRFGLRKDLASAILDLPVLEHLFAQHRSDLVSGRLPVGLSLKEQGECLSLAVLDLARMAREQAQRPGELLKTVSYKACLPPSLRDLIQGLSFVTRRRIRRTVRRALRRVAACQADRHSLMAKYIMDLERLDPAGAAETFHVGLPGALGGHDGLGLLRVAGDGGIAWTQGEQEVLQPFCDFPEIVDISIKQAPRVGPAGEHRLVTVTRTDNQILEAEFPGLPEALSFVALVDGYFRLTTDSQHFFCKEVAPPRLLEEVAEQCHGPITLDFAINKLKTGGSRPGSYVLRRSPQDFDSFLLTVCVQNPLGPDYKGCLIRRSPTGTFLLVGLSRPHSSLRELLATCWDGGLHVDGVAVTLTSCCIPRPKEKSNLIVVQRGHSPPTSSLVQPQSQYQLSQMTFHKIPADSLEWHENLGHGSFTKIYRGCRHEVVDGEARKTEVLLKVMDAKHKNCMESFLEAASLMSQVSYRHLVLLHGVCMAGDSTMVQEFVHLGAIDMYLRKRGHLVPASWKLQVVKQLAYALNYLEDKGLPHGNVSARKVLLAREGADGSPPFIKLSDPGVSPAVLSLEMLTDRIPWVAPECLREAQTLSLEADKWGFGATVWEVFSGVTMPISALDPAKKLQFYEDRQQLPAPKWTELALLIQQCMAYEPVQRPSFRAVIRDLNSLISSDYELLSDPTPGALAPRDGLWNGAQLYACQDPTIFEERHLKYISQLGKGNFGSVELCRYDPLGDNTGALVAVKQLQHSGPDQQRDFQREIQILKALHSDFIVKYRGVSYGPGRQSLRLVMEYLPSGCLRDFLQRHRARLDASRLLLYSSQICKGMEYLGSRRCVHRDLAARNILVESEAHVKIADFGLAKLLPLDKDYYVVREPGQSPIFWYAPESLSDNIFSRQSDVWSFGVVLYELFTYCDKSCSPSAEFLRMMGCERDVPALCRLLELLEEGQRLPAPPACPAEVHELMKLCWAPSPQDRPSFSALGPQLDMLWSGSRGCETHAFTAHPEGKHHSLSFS
Method: as §1

KDR = KDR (Homo sapiens, UniProt P35968)
Method: as §1

ABL2 = ABL2 (Homo sapiens, UniProt P42684)
Sequence of ABL2 (P42684 whole entry): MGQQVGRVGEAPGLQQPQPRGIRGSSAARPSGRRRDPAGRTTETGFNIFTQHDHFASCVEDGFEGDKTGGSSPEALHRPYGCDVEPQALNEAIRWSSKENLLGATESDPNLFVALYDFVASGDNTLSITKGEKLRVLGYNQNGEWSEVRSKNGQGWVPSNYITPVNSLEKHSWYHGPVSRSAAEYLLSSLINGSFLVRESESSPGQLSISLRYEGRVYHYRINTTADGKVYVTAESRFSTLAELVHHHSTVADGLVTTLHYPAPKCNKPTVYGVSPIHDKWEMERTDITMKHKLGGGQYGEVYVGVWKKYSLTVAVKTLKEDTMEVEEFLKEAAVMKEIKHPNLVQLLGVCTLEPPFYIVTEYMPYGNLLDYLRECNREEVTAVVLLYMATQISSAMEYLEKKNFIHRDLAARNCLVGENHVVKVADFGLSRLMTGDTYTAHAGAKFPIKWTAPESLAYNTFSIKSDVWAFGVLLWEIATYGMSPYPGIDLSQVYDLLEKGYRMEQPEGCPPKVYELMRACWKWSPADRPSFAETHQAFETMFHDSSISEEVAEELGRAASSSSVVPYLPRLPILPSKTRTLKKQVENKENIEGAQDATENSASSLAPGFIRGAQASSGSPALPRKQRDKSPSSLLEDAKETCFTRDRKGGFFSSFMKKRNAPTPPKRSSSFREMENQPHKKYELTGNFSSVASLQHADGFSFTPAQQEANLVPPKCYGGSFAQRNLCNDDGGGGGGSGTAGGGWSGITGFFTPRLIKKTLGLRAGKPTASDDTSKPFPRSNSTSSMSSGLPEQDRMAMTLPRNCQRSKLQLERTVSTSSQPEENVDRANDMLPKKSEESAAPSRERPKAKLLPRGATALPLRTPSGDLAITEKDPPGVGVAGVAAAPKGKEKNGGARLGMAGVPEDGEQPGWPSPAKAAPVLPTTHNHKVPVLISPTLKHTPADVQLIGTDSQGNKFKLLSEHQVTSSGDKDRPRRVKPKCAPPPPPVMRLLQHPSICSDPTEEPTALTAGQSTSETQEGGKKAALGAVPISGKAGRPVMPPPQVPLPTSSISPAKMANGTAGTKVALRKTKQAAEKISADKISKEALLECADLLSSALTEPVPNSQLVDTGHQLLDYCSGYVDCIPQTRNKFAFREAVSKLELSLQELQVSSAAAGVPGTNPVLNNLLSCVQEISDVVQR
Method: as §1

DDR2 = DDR2 (Homo sapiens, UniProt Q16832)
Method: as §1

NTRK2 = NTRK2 (Homo sapiens, UniProt Q16620)
Method: as §1

ERBB2 = ERBB2 (Homo sapiens, UniProt P04626)
Method: as §1

MST1R = MST1R (Homo sapiens, UniProt Q04912)
Method: as §1

KIT = KIT (Homo sapiens, UniProt P10721)
Method: as §1

PTK2 = PTK2 (Homo sapiens, UniProt Q05397)
Method: as §1

ALK = ALK (Homo sapiens, UniProt Q9UM73)
Method: as §1

EPHA2 = EPHA2 (Homo sapiens, UniProt P29317)
Method: as §1

NTRK1 = NTRK1 (Homo sapiens, UniProt P04629)
Sequence of NTRK1 (P04629 33-796): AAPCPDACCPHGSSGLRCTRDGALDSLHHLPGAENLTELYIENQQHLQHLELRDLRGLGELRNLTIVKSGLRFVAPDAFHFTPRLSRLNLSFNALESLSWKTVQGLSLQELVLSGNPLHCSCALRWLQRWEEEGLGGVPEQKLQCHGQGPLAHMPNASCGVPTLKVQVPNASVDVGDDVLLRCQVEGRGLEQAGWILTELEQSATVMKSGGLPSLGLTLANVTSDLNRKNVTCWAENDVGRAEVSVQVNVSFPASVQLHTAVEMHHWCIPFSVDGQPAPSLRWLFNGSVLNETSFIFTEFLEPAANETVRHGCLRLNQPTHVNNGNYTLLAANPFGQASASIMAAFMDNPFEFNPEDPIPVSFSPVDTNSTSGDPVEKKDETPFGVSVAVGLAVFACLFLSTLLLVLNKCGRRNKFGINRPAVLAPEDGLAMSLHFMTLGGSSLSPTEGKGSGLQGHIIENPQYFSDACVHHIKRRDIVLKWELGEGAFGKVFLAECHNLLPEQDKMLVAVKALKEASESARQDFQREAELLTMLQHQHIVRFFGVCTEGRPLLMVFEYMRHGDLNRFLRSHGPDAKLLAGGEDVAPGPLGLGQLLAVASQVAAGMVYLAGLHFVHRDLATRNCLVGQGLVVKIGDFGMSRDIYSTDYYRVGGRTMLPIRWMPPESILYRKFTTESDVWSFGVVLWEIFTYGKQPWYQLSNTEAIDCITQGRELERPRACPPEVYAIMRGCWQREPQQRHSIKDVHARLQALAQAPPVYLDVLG
Method: as §1

FGFR4 = FGFR4 (Homo sapiens, UniProt P22455)
Method: as §1

AXL = AXL (Homo sapiens, UniProt P30530)
Sequence of AXL (P30530 26-894): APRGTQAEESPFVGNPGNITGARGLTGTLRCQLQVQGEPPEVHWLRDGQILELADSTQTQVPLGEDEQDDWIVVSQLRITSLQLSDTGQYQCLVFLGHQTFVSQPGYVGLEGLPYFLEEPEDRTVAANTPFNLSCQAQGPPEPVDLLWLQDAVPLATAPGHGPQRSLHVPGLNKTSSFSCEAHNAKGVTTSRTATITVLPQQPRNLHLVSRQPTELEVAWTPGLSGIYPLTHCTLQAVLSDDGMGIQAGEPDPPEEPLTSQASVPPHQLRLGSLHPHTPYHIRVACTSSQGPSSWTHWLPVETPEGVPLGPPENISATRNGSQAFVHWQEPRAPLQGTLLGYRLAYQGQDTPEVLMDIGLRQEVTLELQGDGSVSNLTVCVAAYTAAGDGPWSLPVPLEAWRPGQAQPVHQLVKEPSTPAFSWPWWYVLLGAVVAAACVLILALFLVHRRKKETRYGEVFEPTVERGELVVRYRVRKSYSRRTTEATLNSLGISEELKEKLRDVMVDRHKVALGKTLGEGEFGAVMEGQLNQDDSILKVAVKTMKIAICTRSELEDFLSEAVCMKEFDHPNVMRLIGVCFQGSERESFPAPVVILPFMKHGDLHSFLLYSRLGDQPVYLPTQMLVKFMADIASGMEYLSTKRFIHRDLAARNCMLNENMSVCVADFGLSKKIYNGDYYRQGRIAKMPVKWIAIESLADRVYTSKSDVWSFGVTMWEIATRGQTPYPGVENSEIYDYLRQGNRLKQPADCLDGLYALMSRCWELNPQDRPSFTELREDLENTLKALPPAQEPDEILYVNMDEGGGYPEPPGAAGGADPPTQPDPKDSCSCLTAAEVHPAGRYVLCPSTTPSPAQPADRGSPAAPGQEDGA
Method: as §1

SYK = SYK (Homo sapiens, UniProt P43405)
Method: as §1

FRK = FRK (Homo sapiens, UniProt P42685)
Sequence of FRK (P42685 whole entry): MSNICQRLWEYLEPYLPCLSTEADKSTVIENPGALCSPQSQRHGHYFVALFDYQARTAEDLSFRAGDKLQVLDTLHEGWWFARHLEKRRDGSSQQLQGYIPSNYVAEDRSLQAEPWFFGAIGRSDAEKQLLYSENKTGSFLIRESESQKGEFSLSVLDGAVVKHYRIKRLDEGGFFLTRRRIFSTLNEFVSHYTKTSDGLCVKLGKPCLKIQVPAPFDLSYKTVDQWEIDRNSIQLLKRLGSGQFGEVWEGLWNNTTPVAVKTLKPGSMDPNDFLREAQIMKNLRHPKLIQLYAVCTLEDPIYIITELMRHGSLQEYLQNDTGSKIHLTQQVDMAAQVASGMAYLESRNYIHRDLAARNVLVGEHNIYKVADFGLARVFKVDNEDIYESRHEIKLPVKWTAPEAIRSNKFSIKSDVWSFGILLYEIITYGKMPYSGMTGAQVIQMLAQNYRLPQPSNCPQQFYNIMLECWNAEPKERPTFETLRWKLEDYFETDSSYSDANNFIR
Method: as §1

Question: `CCS(=O)(=O)Cc1cnc(Oc2c(F)cc(F)cc2OCCCCOc2ccc(/C=C/c3cc(OC)cc(OC)c3)cc2)c(-c2cc(C)c3c(=O)[nH]ccn23)c1` [BST-4] was tested. Which IC50 (CSK) did it give?
Answer: > 10 µM

Question: And the inhibition at 1 µM (CSK)?
Answer: 0.74%

Question: What about the IC50 (INSR) of the same compound?
Answer: > 10 µM

Question: And the inhibition at 1 µM (INSR)?
Answer: 2.53%

Question: What about the IC50 (PDGFRA) of the same compound?
Answer: > 10 µM

Question: And the inhibition at 1 µM (PDGFRA)?
Answer: 0.37%

Question: What about the IC50 (LYN) of the same compound?
Answer: > 10 µM

Question: What about the inhibition at 1 µM (LYN) of the same compound?
Answer: 1.96%

Question: And the IC50 (IGF1R)?
Answer: > 10 µM

Question: What about the inhibition at 1 µM (IGF1R) of the same compound?
Answer: 0.91%

Question: What about the IC50 (ROS1) of the same compound?
Answer: > 10 µM

Question: What about the inhibition at 1 µM (ROS1) of the same compound?
Answer: 0.97%

Question: And the IC50 (DDR1)?
Answer: > 10 µM

Question: And the inhibition at 1 µM (DDR1)?
Answer: 3.63%

Question: And the IC50 (MET)?
Answer: > 10 µM

Question: And the inhibition at 1 µM (MET)?
Answer: 0.68%

Question: What about the IC50 (FER) of the same compound?
Answer: > 10 µM

Question: What about the inhibition at 1 µM (FER) of the same compound?
Answer: 0.03%

Question: What about the IC50 (RET) of the same compound?
Answer: > 10 µM

Question: And the inhibition at 1 µM (RET)?
Answer: 0.41%

Question: What about the IC50 (EPHB4) of the same compound?
Answer: > 10 µM

Question: And the inhibition at 1 µM (EPHB4)?
Answer: 0.97%

Question: What about the IC50 (FLT1) of the same compound?
Answer: > 10 µM

Question: What about the inhibition at 1 µM (FLT1) of the same compound?
Answer: 0.14%

Question: And the IC50 (TYRO3)?
Answer: > 10 µM

Question: And the inhibition at 1 µM (TYRO3)?
Answer: 0.04%

Question: And the IC50 (EPHB3)?
Answer: > 10 µM

Question: What about the inhibition at 1 µM (EPHB3) of the same compound?
Answer: 0.98%

Question: What about the IC50 (FGFR1) of the same compound?
Answer: > 10 µM

Question: And the inhibition at 1 µM (FGFR1)?
Answer: 0.59%

Question: And the IC50 (ZAP70)?
Answer: > 10 µM

Question: And the inhibition at 1 µM (ZAP70)?
Answer: 0.68%

Question: What about the IC50 (JAK3) of the same compound?
Answer: > 10 µM

Question: What about the inhibition at 1 µM (JAK3) of the same compound?
Answer: 0.39%

Question: And the IC50 (KDR)?
Answer: > 10 µM

Question: What about the inhibition at 1 µM (KDR) of the same compound?
Answer: 1.51%

Question: What about the IC50 (ABL2) of the same compound?
Answer: > 10 µM

Question: What about the inhibition at 1 µM (ABL2) of the same compound?
Answer: 0.44%

Question: And the IC50 (DDR2)?
Answer: > 10 µM

Question: What about the inhibition at 1 µM (DDR2) of the same compound?
Answer: 0.7%

Question: And the IC50 (NTRK2)?
Answer: > 10 µM

Question: And the inhibition at 1 µM (NTRK2)?
Answer: 1.22%

Question: And the IC50 (ERBB2)?
Answer: > 10 µM

Question: And the inhibition at 1 µM (ERBB2)?
Answer: 4.43%

Question: And the IC50 (MST1R)?
Answer: > 10 µM

Question: And the inhibition at 1 µM (MST1R)?
Answer: 5.02%

Question: What about the IC50 (KIT) of the same compound?
Answer: > 10 µM

Question: What about the inhibition at 1 µM (KIT) of the same compound?
Answer: 0.25%

Question: What about the IC50 (PTK2) of the same compound?
Answer: > 10 µM

Question: What about the inhibition at 1 µM (PTK2) of the same compound?
Answer: 1.48%

Question: What about the IC50 (ALK) of the same compound?
Answer: > 10 µM

Question: And the inhibition at 1 µM (ALK)?
Answer: 0.72%

Question: What about the IC50 (EPHA2) of the same compound?
Answer: > 10 µM

Question: And the inhibition at 1 µM (EPHA2)?
Answer: 0.5%

Question: What about the IC50 (NTRK1) of the same compound?
Answer: > 10 µM

Question: And the inhibition at 1 µM (NTRK1)?
Answer: 0.67%

Question: What about the IC50 (FGFR4) of the same compound?
Answer: > 10 µM

Question: What about the inhibition at 1 µM (FGFR4) of the same compound?
Answer: 0.68%

Question: What about the IC50 (AXL) of the same compound?
Answer: > 10 µM

Question: And the inhibition at 1 µM (AXL)?
Answer: 1.83%

Question: What about the IC50 (SYK) of the same compound?
Answer: > 10 µM

Question: What about the inhibition at 1 µM (SYK) of the same compound?
Answer: 1.92%

Question: And the IC50 (FRK)?
Answer: > 10 µM

Question: What about the inhibition at 1 µM (FRK) of the same compound?
Answer: 0.95%
